Measured values from patent US20230150981A1, “N-HETEROARYLALKYL-2-(HETEROCYCLYL AND HETEROCYCLYLMETHYL) ACETAMIDE DERIVATIVES AS SSTR4 AGONISTS” (Takeda Pharmaceutical Compnay Limited, priority 2020, published 2023).

Key:
SSTR1 = target: T1, SSTR1 (Homo sapiens, UniProt P30872); assay: SSTR1 I-125 somatostatin competition binding assay for selectivity versus SSTR1 (CHO-K1 membranes); conditions: competition with I-125 somatostatin, membranes from CHO-K1 overexpressing SSTR1; read-out: SSTR1 Binding pIC50 (converted)
T1 construct: purchased Perkin Elmer ES-520-M400UA; host or cells: CHO-K1 membranes
T1 sequence (P30872 whole entry): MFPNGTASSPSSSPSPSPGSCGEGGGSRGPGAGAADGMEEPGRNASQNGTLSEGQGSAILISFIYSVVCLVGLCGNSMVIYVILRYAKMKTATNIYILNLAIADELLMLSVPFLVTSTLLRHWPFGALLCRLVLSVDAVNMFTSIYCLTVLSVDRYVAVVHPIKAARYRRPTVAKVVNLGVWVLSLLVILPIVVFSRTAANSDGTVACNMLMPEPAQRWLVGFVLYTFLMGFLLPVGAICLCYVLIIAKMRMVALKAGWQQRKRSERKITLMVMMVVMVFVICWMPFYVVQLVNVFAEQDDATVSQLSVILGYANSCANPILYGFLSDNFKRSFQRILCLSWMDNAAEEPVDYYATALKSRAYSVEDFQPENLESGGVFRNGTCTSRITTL
In short: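 Competition binding used 10 μg CHO-K1 SSTR1 membranes and I-125 somatostatin, 0.4 nM in the compound mix before membranes were added. Buffer was 25 mM HEPES pH 7.4, 10 mM MgCl2, 1 mM CaCl2, 0.5% BSA. After 60 min at room temperature, bound tracer was filtered onto PEI-soaked filters and counted by scintillation; values are pIC50.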

SSTR4 [1] = target: T2, SSTR4 (Homo sapiens, UniProt P31391); assay: SSTR4 I-125 somatostatin competition binding assay (CHO-K1 membranes); conditions: competition with I-125 somatostatin, membranes from CHO-K1 overexpressing SSTR4; read-out: SSTR4 Binding pIC50 (converted)
T2 construct: host or cells: CHO-K1
T2 sequence (P31391 whole entry): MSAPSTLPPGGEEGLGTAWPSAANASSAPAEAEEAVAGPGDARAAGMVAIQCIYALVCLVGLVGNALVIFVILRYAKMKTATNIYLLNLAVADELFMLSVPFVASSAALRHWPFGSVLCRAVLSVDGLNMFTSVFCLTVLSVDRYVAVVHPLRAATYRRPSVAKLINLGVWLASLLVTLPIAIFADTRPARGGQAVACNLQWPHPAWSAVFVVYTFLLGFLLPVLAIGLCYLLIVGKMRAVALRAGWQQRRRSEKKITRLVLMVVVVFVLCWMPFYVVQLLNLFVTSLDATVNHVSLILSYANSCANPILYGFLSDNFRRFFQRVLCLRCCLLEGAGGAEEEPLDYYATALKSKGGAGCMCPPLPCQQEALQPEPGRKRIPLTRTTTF
In short: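 CHO-K1 membranes overexpressing SSTR4 (1 μg/well) were incubated 60 min at room temperature with compound and I-125 somatostatin (0.2 nM in the compound mix) in 25 mM HEPES pH 7.4, 10 mM MgCl2, 1 mM CaCl2, 0.5% BSA. Bound radioligand was collected on PEI-soaked filters and scintillation-counted, with results reported as pIC50.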

SSTR4 [2] = target: T2, SSTR4; assay: Inhibition of forskolin stimulated cAMP in CHO-K1 cells overexpressing SSTR4; format: cell-based; conditions: read-out: SSTR4 Activity pEC50 (converted)
In short: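 CHO-K1 cells overexpressing SSTR4 treated 30 min at room temperature with compound in Krebs Ringer buffer containing 0.5% BSA, 300 μM IBMX and 350 nM forskolin. Intracellular cAMP measured by HTRF LANCE Ultra (665/615 nm); pEC50 values reported.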

Row | Compound | IC50 (SSTR1) | IC50 (SSTR4 [1]) | EC50 (SSTR4 [2])
1 | CN1CCC[C@H]1CC(=O)NC(C)(C)c1nn(C)c2ccccc12 [Example 4, (S)-N-(2-(1-methyl-1H-indazol-3-yl)propan-2-yl)-2-(1-methylpyrrolidin-2-yl)acetamide] | 10000 nM | 158 nM | 25.1 nM
2 | C[C@H](CN1CCC1)C(=O)NC(C)(C)c1ccccc1F (single isomer, unassigned) [Example 156] | 20000 nM | 100 nM | 7.94 nM
3 | Cc1cccc(C(C)(C)NC(=O)[C@@H](C)CN2CCC2)c1Cl (single isomer, unassigned) [Example 145] | 1260 nM | 20 nM | 0.794 nM
4 | CC(C)(NC(=O)C[C@@H]1CCCN1)c1nccc2ccccc12 [Example 23, (S)-N-(2-(isoquinolin-1-yl)propan-2-yl)-2-(pyrrolidin-2-yl)acetamide] | 7940 nM | 1000 nM | 25.1 nM
5 | CC[C@H](CN1CCC1)C(=O)NC(C)(C)c1ccc(F)cc1 (single isomer, unassigned) [Example 182] | 1000 nM | 12.6 nM | 1.58 nM
6 | C[C@@H](C(=O)NC(C)(C)c1nccc2ccccc12)[C@@H]1CCCN1C (racemic) [Example 110, (R)-N-(2-(isoquinolin-1-yl)propan-2-yl)-2-((S)-1-methylpyrrolidin-2-yl)propanamide and (S)-N-(2-(isoquinolin-1-yl)propan-2-yl)-2-((R)-1-methylpyrrolidin-2-yl)propanamide] | 12600 nM | 79.4 nM | 3.98 nM
7 | O=C(CCN1CCC1)NC(c1cccc(Cl)c1)C(F)(F)F (single isomer, unassigned) [Example 191] | 2510 nM | 10 nM | 2 nM
8 | CC[C@@H](CN1CCC1)C(=O)N[C@H](c1cccc(F)c1)C(F)F [Example 195, (S)-2-(azetidin-1-ylmethyl)-N-((R)-2,2-difluoro-1-(3-fluorophenyl)ethyl)butanamide] | 1000 nM | 2.51 nM | 2 nM
9 | O=C(CCN1CCC1)NC(c1cccc(F)c1)C(F)(F)F (single isomer, unassigned) [Example 193] | 31600 nM | 200 nM | 15.8 nM
10 | Cc1cccc2c(C(C)(C)NC(=O)C[C@H]3CCCN3C)nccc12 [Example 17, (R)-N-(2-(5-methylisoquinolin-1-yl)propan-2-yl)-2-(1-methylpyrrolidin-2-yl)acetamide] | 5010 nM | 100 nM | 3.98 nM
11 | CN1CCC[C@@H]1CC(=O)NC(C)(C)c1cccc(F)c1Cl [Example 94, (R)-N-(2-(2-chloro-3-fluorophenyl)propan-2-yl)-2-(1-methylpyrrolidin-2-yl)acetamide] | > 50100 nM | 398 nM | 63.1 nM
12 | Cc1ccc(C(NC(=O)CCN2CCC2)C(F)(F)F)cc1 (single isomer, unassigned) [Example 207] | 5010 nM | 39.8 nM | 1.58 nM
13 | CN1CCC[C@H]1CC(=O)NC(C)(C)[C@@H]1CCc2ccccc2O1 (single isomer, unassigned) [Example 128] | 10000 nM | 316 nM | 39.8 nM
14 | C[C@H](CN1CCC1)C(=O)N[C@@H](CF)c1ccccc1 (single isomer, unassigned) [Example 205] | 2510 nM | 25.1 nM | 1.26 nM
15 | Cc1cccnc1OCC(C)(C)NC(=O)C[C@H]1CCCN1C [Example 46, (R)-N-(2-methyl-1-((3-methylpyridin-2-yl)oxy)propan-2-yl)-2-(1-methylpyrrolidin-2-yl)acetamide] | 25100 nM | 398 nM | 12.6 nM
16 | Cc1c(F)cccc1C(C)(C)NC(=O)[C@H](C)CN1CCC1 (single isomer, unassigned) [Example 142] | 2000 nM | 15.8 nM | 1.58 nM
17 | COc1ccc(C(C)(C)NC(=O)[C@H](C)CN2CCC2)cc1 (single isomer, unassigned) [Example 138] | 15800 nM | 126 nM | 12.6 nM
18 | CC[C@@H](CN1CCC1)C(=O)NC(C)(C)c1ccccc1F (single isomer, unassigned) [Example 200] | 5010 nM | 25.1 nM | 2 nM
19 | Cc1cccc(C(C)(C)NC(=O)CCN2CCC2)c1 [Example 162, 3-(azetidin-1-yl)-N-(2-(m-tolyl)propan-2-yl)propanamide] | 25100 nM | 79.4 nM | 7.94 nM
20 | CC[C@@H](CN1CCC1)C(=O)N[C@H](c1ccccc1OC)C(F)F [Example 189, (S)-2-(azetidin-1-ylmethyl)-N-((R)-2,2-difluoro-1-(2-methoxyphenyl)ethyl)butanamide] | 631 nM | 7.94 nM | 1 nM
21 | Cc1cccc(OCC(C)(C)NC(=O)C[C@@H]2CCCN2C)n1 [Example 104, (S)-N-(2-methyl-1-((6-methylpyridin-2-yl)oxy)propan-2-yl)-2-(1-methylpyrrolidin-2-yl)acetamide] | 39800 nM | 2000 nM | 100 nM
